Measured values from US10104891B2 (priority 2014, dated 2018).

How the values were obtained:
Format in all cases: in vivo
Phytophthora infestans = test: whole plant or invertebrate; conditions: for control value (Test 1): tomato late blight, control value vs untreated section
[1] = tested on: Pseudoperonospora cubensis; test: Test 2: control effect against cucumber downy mildew; conditions: control value vs untreated section
Method: (§1) A 10% wettable powder created according to the Pharmaceutical Formulation Example 1 was diluted with a Tween20 solution prepared to a concentration of 1/5000, then the compound of formula [1] was prepared to a concentration of 4 ppm. Further, the compound of formula [1] in Test 4 was adjusted to a concentration of 1,000 ppm.
<Test 2 Test of Control Effect Against Cucumber Downy Mildew>
(§2) Test suspension was applied to cucumber at the 2 leaf stage (species: Sagami hanjiro) in an amount of 20 ml per seedling. One day after application, zoospore suspension of Pseudoperonospora cubensis adjusted to a concentration of 1.0×10^4 units/ml was misted/inoculated, and the seedlings were incubated in a moist chamber adjusted to 22° C. for 16 hr. Then, the onset of the disease was induced in the chamber, and the lesion area rate on the leaves 5 days after inoculation was investigated to compute the control value using the formula below. control value={1−onset area rate of the leaves that were applied the test agent/onset area rate of untreated leaves}×100 Computational formula of the control value: […]

Plasmopara viticola = test: Test 3: control effect against grape downy mildew; conditions: control value vs untreated section
Method: as §1
<Test 3 Test of Control Effect Against Grape Downy Mildew>
as §2, with “grape seedling” for “cucumber at the 2 leaf stage”, “Neomuscat)” for “Sagami hanjiro)”, “Plasmopara viticola” for “Pseudoperonospora cubensis”

SMILES: CS(=O)(=O)Oc1cccc2c1COC(c1csc(C3CCN(C(=O)Cn4nc(C(F)(F)F)cc4C(F)(F)F)CC3)n1)OC2 (stereo not drawn) [Compound 1-42, 4-[4-(6-methylsulfonyloxy-1,5-dihydro-3H-2,4-benzodioxepin-3-yl)-2-thiazolyl]-1-[2-[3,5-bis(trifluoromethyl)-1H-pyrazole-1-yl]acetyl]piperidine]
- pest or weed control at 4 µg/mL (Phytophthora infestans; Phytophthora infestans, in Solanum lycopersicum, 96 h, read-out: control value (Test 1)): 100%
- pest or weed control at 4 µg/mL ([1]; Pseudoperonospora cubensis, 120 h): 100%
- pest or weed control at 4 µg/mL (Plasmopara viticola; Plasmopara viticola, 120 h): 100%

SMILES: Cc1cc(C(F)(F)F)nn1CC(=O)N1CCC(c2nc(C3OCc4cccc(NS(C)(=O)=O)c4CO3)cs2)CC1 (stereo not drawn) [Compound 1-43]
- control value (Test 1) (Phytophthora infestans): 80
- control value (Test 2) [1]: 100
- control value (Test 3) (Plasmopara viticola): 100

SMILES: COc1ccc([N+](=O)[O-])c2c1COC(c1csc(C3CCN(C(=O)Cn4nc(C(F)(F)F)cc4C)CC3)n1)OC2 (stereo not drawn) [Compound 1-46]
- control value (Test 1) (Phytophthora infestans): 100
- control value (Test 2) [1]: 100
- control value (Test 3) (Plasmopara viticola): 100

SMILES: Cc1cc(C(F)(F)F)nn1CC(=O)N1CCC(c2nc(C3OCc4cccc(OS(=O)(=O)c5ccccc5)c4CO3)cs2)CC1 (stereo not drawn) [Compound 1-48]
- control value (Test 1) (Phytophthora infestans): 100
- control value (Test 2) [1]: 100
- control value (Test 3) (Plasmopara viticola): 100

SMILES: Cc1cc(C(F)(F)F)nn1CC(=O)N1CCC(c2nc(C3OCc4cccc(CO)c4CO3)cs2)CC1 (stereo not drawn) [Compound 1-52]
- control value (Test 1) (Phytophthora infestans): 100
- control value (Test 2) [1]: 100
- control value (Test 3) (Plasmopara viticola): 100

SMILES: CC(C)S(=O)(=O)Oc1cccc2c1COC(c1csc(C3CCN(C(=O)Cn4nc(C(F)F)cc4C(F)F)CC3)n1)OC2 (stereo not drawn) [Compound 1-53]
- control value (Test 1) (Phytophthora infestans): 100
- control value (Test 2) [1]: 100
- control value (Test 3) (Plasmopara viticola): 100

SMILES: CCCCS(=O)(=O)Oc1cccc2c1COC(c1csc(C3CCN(C(=O)Cn4nc(C(F)F)cc4C(F)F)CC3)n1)OC2 (stereo not drawn) [Compound 1-54]
- control value (Test 1) (Phytophthora infestans): 100
- control value (Test 2) [1]: 100
- control value (Test 3) (Plasmopara viticola): 100

SMILES: O=C(Cn1nc(C(F)F)cc1C(F)F)N1CCC(c2nc(C3OCc4c(F)c(F)c(F)c(F)c4CO3)cs2)CC1 [Compound 1-55]
- control value (Test 1) (Phytophthora infestans): 100
- control value (Test 2) [1]: 100
- control value (Test 3) (Plasmopara viticola): 100

SMILES: Cc1cc(C(F)(F)F)nn1CC(=O)N1CCC(c2nc(C3OCc4cccc(-c5ccccc5)c4CO3)cs2)CC1 (stereo not drawn) [Compound 1-56]
- control value (Test 1) (Phytophthora infestans): 90
- control value (Test 2) [1]: 100
- control value (Test 3) (Plasmopara viticola): 100

SMILES: O=C(Cn1nc(C(F)F)cc1C(F)F)N1CCC(c2nc(C3OCc4cccc(Cl)c4CO3)cs2)CC1 (stereo not drawn) [Compound 1-58]
- control value (Test 1) (Phytophthora infestans): 100
- control value (Test 2) [1]: 100
- control value (Test 3) (Plasmopara viticola): 100

SMILES: CCCCCCCCS(=O)(=O)Oc1cccc2c1COC(c1csc(C3CCN(C(=O)Cn4nc(C(F)F)cc4C(F)F)CC3)n1)OC2 (stereo not drawn) [Compound 1-59]
- control value (Test 1) (Phytophthora infestans): 100
- control value (Test 2) [1]: 100
- control value (Test 3) (Plasmopara viticola): 100

SMILES: O=C(Cn1nc(C(F)F)cc1C(F)F)N1CCC(c2nc(C3OCc4ccc(C(F)(F)F)cc4CO3)cs2)CC1 (stereo not drawn) [Compound 1-60]
- control value (Test 1) (Phytophthora infestans): 100
- control value (Test 2) [1]: 100
- control value (Test 3) (Plasmopara viticola): 100

SMILES: O=C(Cn1nc(C(F)F)cc1C(F)F)N1CCC(c2nc(C3OCc4cc5c(cc4CO3)CCC5)cs2)CC1 [Compound 1-61, 4-[4-(1,5,7,8,9-pentahydro-3H-2,4-indenodioxepin-3-yl)-2-thiazolyl]-1-[2-[3,5-bis(difluoromethyl)-1H-pyrazole-1-yl]acetyl]piperidine]
- control value (Test 1) (Phytophthora infestans): 100
- control value (Test 2) [1]: 100
- control value (Test 3) (Plasmopara viticola): 100

SMILES: CON=Cc1cccc2c1COC(c1csc(C3CCN(C(=O)Cn4nc(C(F)(F)F)cc4C)CC3)n1)OC2 (stereo not drawn) [Compound 1-63]
- control value (Test 1) (Phytophthora infestans): 100
- control value (Test 2) [1]: 100
- control value (Test 3) (Plasmopara viticola): 100

SMILES: Cc1cc(OS(C)(=O)=O)c2c(c1C)COC(c1csc(C3CCN(C(=O)Cn4nc(C(F)(F)F)cc4C)CC3)n1)OC2 (stereo not drawn) [Compound 1-64]
- control value (Test 1) (Phytophthora infestans): 100
- control value (Test 2) [1]: 100
- control value (Test 3) (Plasmopara viticola): 100

SMILES: Cc1cc(C(F)(F)F)nn1CC(=O)N1CCC(c2nc(C3OCc4c(Cl)ccc(OS(C)(=O)=O)c4CO3)cs2)CC1 (stereo not drawn) [Compound 1-65]
- control value (Test 1) (Phytophthora infestans): 100
- control value (Test 2) [1]: 100
- control value (Test 3) (Plasmopara viticola): 100

SMILES: Cc1cc(C(F)(F)F)nn1CC(=O)N1CCC(c2nc(C3OCc4c(Br)ccc(OS(C)(=O)=O)c4CO3)cs2)CC1 (stereo not drawn) [Compound 1-66]
- control value (Test 1) (Phytophthora infestans): 100
- control value (Test 2) [1]: 100
- control value (Test 3) (Plasmopara viticola): 100

SMILES: CC(C)S(=O)(=O)Oc1cccc2c1COC(c1csc(C3CCN(C(=O)Cn4nc(C(F)(F)F)cc4C(F)(F)F)CC3)n1)OC2 (stereo not drawn) [Compound 1-67]
- control value (Test 1) (Phytophthora infestans): 100
- control value (Test 2) [1]: 100
- control value (Test 3) (Plasmopara viticola): 100

SMILES: CCCCS(=O)(=O)Oc1cccc2c1COC(c1csc(C3CCN(C(=O)Cn4nc(C(F)(F)F)cc4C(F)(F)F)CC3)n1)OC2 (stereo not drawn) [Compound 1-68]
- control value (Test 1) (Phytophthora infestans): 100
- control value (Test 2) [1]: 100
- control value (Test 3) (Plasmopara viticola): 100

SMILES: Cc1cc(C(F)(F)F)nn1CC(=O)N1CCC(c2nc(C3OCc4cccc(C=NN(C)C)c4CO3)cs2)CC1 (stereo not drawn) [Compound 1-71]
- control value (Test 1) (Phytophthora infestans): 100
- control value (Test 2) [1]: 100
- control value (Test 3) (Plasmopara viticola): 100

SMILES: O=C(Cn1nc(C(F)F)cc1C(F)F)N1CCC(c2nc(C3OCc4cccc(-c5ccccc5)c4CO3)cs2)CC1 (stereo not drawn) [Compound 1-73]
- control value (Test 1) (Phytophthora infestans): 90
- control value (Test 2) [1]: 100
- control value (Test 3) (Plasmopara viticola): 100

SMILES: COc1ccc([N+](=O)[O-])c2c1COC(c1csc(C3CCN(C(=O)Cn4nc(C(F)F)cc4C(F)F)CC3)n1)OC2 (stereo not drawn) [Compound 1-74]
- control value (Test 1) (Phytophthora infestans): 100
- control value (Test 2) [1]: 100
- control value (Test 3) (Plasmopara viticola): 100

SMILES: O=C(Cn1nc(C(F)F)cc1C(F)F)N1CCC(c2nc(C3OCc4ccccc4CO3)cs2)CC1 [Compound 1-76]
- control value (Test 1) (Phytophthora infestans): 100
- control value (Test 2) [1]: 100
- control value (Test 3) (Plasmopara viticola): 100

SMILES: O=C(Cn1nc(C(F)F)cc1C(F)F)N1CCC(c2nc(C3OCc4cc5ccccc5cc4CO3)cs2)CC1 [Compound 1-77]
- control value (Test 1) (Phytophthora infestans): 100
- control value (Test 2) [1]: 100
- control value (Test 3) (Plasmopara viticola): 100

SMILES: O=C(Cn1nc(C(F)F)cc1C(F)F)N1CCC(c2nc(C3OCc4ccc(F)cc4CO3)cs2)CC1 (stereo not drawn) [Compound 1-80]
- control value (Test 1) (Phytophthora infestans): 100
- control value (Test 2) [1]: 100
- control value (Test 3) (Plasmopara viticola): 100

SMILES: O=C(Cn1nc(C(F)F)cc1C(F)F)N1CCC(c2nc(C3OCc4ccc(C(F)(F)F)cc4CO3)cs2)CC1 (stereo not drawn) [Compound 1-81]
- control value (Test 1) (Phytophthora infestans): 100
- control value (Test 2) [1]: 100
- control value (Test 3) (Plasmopara viticola): 100

SMILES: COc1ccc(Br)c2c1COC(c1csc(C3CCN(C(=O)Cn4nc(C(F)(F)F)cc4C(F)(F)F)CC3)n1)OC2 (stereo not drawn) [Compound 1-82]
- control value (Test 1) (Phytophthora infestans): 100
- control value (Test 2) [1]: 100
- control value (Test 3) (Plasmopara viticola): 100

SMILES: COc1ccc([N+](=O)[O-])c2c1COC(c1csc(C3CCN(C(=O)Cn4nc(C(F)(F)F)cc4C(F)(F)F)CC3)n1)OC2 (stereo not drawn) [Compound 1-83]
- control value (Test 1) (Phytophthora infestans): 100
- control value (Test 2) [1]: 100
- control value (Test 3) (Plasmopara viticola): 100

SMILES: O=C(Cn1nc(C(F)(F)F)cc1C(F)(F)F)N1CCC(c2nc(C3OCc4ccccc4CO3)cs2)CC1 [Compound 1-85]
- control value (Test 1) (Phytophthora infestans): 100
- control value (Test 2) [1]: 100
- control value (Test 3) (Plasmopara viticola): 100

SMILES: COc1ccc(OC(F)(F)F)c2c1COC(c1csc(C3CCN(C(=O)Cn4nc(C(F)(F)F)cc4C)CC3)n1)OC2 (stereo not drawn) [Compound 1-86]
- control value (Test 1) (Phytophthora infestans): 100
- control value (Test 2) [1]: 100
- control value (Test 3) (Plasmopara viticola): 100
